Consider 2 molecules from patent publication US11111249B2, “Heteroaryl-pyrazole derivative, and preparation method therefor and medical application thereof” (Jiangsu Hengrui Medicine Co., Ltd., priority 2017, dated 2021).

Molecules are shown by their SMILES.

The target in one assay is T1, human TLR7 (Homo sapiens, UniProt Q9NYK1).
T1 construct: host or cells: HEK-Blue hTLR7 (HEK293-derived) stably transfected cells
T1 sequence (Q9NYK1 27-1049): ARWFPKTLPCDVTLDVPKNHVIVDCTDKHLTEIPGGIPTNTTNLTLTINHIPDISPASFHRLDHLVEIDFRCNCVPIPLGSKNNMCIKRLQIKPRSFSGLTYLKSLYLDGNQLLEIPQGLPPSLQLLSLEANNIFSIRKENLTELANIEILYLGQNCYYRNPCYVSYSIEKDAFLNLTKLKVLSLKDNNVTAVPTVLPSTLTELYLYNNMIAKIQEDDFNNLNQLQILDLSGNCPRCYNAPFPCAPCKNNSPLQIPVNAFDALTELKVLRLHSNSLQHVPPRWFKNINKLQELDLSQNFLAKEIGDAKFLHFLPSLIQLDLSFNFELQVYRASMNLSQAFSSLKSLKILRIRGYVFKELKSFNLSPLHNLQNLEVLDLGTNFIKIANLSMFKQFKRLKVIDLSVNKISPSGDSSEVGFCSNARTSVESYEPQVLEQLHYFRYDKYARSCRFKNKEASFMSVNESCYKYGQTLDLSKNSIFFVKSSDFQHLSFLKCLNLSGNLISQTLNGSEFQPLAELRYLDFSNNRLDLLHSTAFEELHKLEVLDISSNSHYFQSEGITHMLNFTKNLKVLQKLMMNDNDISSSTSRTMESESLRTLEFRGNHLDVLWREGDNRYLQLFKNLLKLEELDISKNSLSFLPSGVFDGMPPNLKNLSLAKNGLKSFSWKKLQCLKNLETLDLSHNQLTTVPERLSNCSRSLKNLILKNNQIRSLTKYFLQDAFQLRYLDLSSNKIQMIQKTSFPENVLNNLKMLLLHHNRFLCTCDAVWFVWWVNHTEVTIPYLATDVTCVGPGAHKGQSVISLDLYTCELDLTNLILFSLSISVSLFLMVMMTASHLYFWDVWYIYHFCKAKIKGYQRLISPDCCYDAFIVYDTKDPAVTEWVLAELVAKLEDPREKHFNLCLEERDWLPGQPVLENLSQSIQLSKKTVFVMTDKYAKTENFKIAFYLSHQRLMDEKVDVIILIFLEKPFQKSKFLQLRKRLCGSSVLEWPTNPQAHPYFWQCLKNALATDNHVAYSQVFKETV
Nature of the assay: Activation of hTLR7 in HEK-Blue hTLR7 stably transfected cells. In kind it is cell-based. The following applies: OD 620 nm, 6-16 hours. The procedure: (§1) The activation effect of the compound of the present application on the hTLR7 protein expressed in HEK-Blue™ hTLR7 stably transfected cells and hTLR8 protein expressed in HEK-Blue™ hTLR8 stably transfected cells were determined by the following experimental method:
(§2) The HEK-Blue assay medium was configured, HEK-Blue test dry powder was taken and 50 mL deendotoxin water were added to dissolve, then the resulting mixture was placed into the 37° C. incubator, and then filtered aseptically 10 minutes later. […]
(§3) The above-prepared compound was diluted 20-fold with a medium, and then 20 μL of the diluted compound were added to each well. HEK-Blue™ hTLR7 cells and HEK-Blue™ hTLR8 cells were taken separately, and the supernatant was removed first, then 2-5 mL pre-warmed PBS was added, placed in an incubator for 1-2 minutes, and the cells were gently pipetted, stained with trypan blue and counted. […]
(§4) The microplate reader reads at a wavelength of 620 nm. The corresponding OD value was obtained, and the EC50 value of the drug was calculated by Graphpad Prism. The activation effect of the compound of the present application and the control compound (prepared by the method of embodiment 21 of WO2016023511) on human TLR7 and TLR8 were determined by the above test, and the measured EC50 values were as shown in Table 1.

The target of the next assay is T2, human TLR8 (Homo sapiens, UniProt Q9NR97).
T2 construct: host or cells: HEK-Blue hTLR8 (HEK293-derived) stably transfected cells
T2 sequence (Q9NR97 27-1041): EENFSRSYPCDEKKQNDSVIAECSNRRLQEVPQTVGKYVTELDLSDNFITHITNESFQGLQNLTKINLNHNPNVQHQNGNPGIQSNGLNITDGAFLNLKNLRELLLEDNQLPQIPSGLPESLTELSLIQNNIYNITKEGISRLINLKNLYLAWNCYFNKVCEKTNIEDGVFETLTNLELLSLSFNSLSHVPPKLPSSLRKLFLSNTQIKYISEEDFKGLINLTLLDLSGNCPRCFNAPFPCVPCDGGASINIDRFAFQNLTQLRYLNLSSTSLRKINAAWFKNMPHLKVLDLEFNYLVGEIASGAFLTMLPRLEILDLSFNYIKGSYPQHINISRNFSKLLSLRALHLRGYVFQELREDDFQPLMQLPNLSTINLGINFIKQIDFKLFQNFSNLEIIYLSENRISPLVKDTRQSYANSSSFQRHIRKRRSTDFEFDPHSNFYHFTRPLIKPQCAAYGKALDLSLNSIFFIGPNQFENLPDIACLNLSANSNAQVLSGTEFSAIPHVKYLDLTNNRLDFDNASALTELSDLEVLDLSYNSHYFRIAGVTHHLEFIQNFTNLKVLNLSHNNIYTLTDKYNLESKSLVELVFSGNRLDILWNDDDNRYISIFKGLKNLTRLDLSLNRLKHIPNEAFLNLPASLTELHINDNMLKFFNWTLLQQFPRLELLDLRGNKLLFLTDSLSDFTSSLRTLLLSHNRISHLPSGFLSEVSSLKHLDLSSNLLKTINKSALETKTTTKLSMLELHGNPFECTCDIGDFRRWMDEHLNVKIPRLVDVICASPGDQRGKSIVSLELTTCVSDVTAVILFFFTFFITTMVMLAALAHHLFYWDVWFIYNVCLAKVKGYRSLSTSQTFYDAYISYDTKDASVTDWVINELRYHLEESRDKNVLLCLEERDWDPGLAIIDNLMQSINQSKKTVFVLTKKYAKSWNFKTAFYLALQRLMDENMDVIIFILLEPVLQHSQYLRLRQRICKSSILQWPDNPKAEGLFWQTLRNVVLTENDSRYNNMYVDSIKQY
The experiment in a line: Activation of hTLR8 in HEK-Blue hTLR8 stably transfected cells. The assay is classed as cell-based. The note with it: OD 620 nm, 6-16 hours. The procedure: as §1, §2, §3, §4

As a reminder, the EC50 is the concentration that produces a half-maximal response. High values mean lower potency in that assay, low ones higher potency in that assay. With `CCCCOc1nc(N)c2[nH]cc(Cc3ccc(CN4CCCC4)cc3)c2n1` [Embodiment 21 of WO2016023511], the EC50 at human TLR7 came out at 243 nM; at human TLR8 it was 12500 nM.
On the same counts, the results for `CCCCOc1nc(N)c2[nH]nc(Cc3ccc(CN4CCCC4)cc3)c2n1` [Embodiment 1, 5-Butoxy-3-(4-(pyrrolidin-1-ylmethyl)benzyl)-1H-pyrazolo[4,3-d]pyrimidin-7-amine] are 53 nM and 5220 nM.
